According to BindingDB's records for doi:10.1021/acs.biochem.6b00486 (Academia Sinica, 2016):

Assays:
[1] = molecular target: T1, IspB protein (Escherichia coli (strain 55989 / EAEC), UniProt B7LHQ0); experiment: Fluorescent Assay
[2] = molecular target: T1, IspB protein; experiment: Radioactive Assay

T1 sequence (B7LHQ0 whole entry): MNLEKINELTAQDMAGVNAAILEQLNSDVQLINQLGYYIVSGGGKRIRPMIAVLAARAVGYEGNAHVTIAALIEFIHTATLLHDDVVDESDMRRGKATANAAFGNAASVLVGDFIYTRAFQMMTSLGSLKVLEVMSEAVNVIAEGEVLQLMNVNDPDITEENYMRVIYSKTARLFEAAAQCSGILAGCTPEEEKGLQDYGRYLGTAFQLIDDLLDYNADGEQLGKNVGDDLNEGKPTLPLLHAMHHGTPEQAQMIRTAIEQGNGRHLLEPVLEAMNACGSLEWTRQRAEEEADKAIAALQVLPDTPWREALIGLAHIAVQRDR

- IC50 [1]: 220 nM
- IC50 [2]: 290 nM
Structure (SMILES): O=P(O)(O)C(O)(Cn1ccnc1)P(=O)(O)O
